How the values were obtained:
[1] = molecular target: T1, PR-B (Homo sapiens, UniProt P06401); assay: PR-B transcriptional reporter assay, antagonist mode (HEPG2 cells); assay type: cell-based; conditions: 1 nM R5020
T1 construct: cloning full-length human PRb into pCDNA; expressed in transfected cells; host or cells: HEPG2
T1 sequence (P06401 1-933): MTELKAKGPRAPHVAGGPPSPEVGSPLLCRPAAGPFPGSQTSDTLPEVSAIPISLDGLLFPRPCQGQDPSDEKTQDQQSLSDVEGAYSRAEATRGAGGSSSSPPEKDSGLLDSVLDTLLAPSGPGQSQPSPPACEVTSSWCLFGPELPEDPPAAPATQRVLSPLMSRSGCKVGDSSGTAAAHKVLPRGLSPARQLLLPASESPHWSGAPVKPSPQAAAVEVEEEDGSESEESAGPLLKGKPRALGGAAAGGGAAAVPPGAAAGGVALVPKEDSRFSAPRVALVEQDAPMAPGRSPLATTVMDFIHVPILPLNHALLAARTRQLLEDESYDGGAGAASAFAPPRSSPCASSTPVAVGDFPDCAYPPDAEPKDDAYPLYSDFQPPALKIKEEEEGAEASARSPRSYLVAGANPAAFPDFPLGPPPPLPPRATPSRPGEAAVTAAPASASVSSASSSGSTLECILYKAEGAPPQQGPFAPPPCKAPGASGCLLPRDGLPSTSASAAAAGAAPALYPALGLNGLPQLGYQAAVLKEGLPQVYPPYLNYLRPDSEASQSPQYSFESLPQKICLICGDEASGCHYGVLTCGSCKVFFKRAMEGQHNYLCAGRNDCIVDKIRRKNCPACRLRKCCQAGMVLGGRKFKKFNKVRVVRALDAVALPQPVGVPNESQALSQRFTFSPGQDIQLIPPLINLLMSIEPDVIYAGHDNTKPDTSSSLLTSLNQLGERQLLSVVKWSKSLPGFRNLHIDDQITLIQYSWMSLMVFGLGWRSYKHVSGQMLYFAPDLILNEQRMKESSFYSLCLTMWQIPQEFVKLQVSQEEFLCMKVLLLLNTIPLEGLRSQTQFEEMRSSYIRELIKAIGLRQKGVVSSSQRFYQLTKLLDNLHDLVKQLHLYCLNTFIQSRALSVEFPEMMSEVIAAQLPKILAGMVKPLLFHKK

[2] = test system: ER; parameters: method as in Dickler et al., 2015; conditions: postmenopausal women with ER+ locally advanced or metastatic breast cancer, patients with FES-PET scans; ref Dickler et al., 2015; cited from earlier work

Row | Structure (SMILES) | IC50 [1] | patients with complete/near complete (>90%) suppression of FES uptake [2]
1 | CC/C(=C(\c1ccc(O)cc1)c1ccc(OCCN(C)C)cc1)c1ccccc1 [4-OH Tam, 4-hydroxytamoxifen] | 7.16 ± 2.15 µM | 
2 | CC/C(=C(/c1ccc(/C=C/C(=O)O)cc1)c1ccc2[nH]ncc2c1)c1ccc(F)cc1Cl [GDC-0810] |  | 90 % of patients

Source: article PMC4961458 (eLife, 2016)
